Results taken from US10201531B2, “Indazolyl-oxo-isothiazole compounds” (MOCHIDA PHARMACEUTICAL CO., LTD., priority 2015, dated 2019).

Tested on: Nrf2
Assay: Evaluation of Nrf2 activation ability (Nrf2d-LacZ / Keap1 HEK293 reporter, Beta-Glo luminescence)
Format: cell-based, human
Settings: Pharmacological Test Example 1, rated A/B/C
Procedure, shortened: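 HEK293 cells stably expressing a human Nrf2 degron–LacZ fusion plus human Keap1 were exposed to compound for 3 h at 37° C. Reporter β-galactosidase was read by Beta-Glo luminescence after 1 h at RT. Activation is given as % of the signal with 100 nM CDDO-Im.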

| EC50 | Structure (SMILES) |
| --- | --- |
| 1 to 5 µM | [O-][s+]1nc(O)cc1-n1cc(CCc2ccc(Cl)nc2)cn1 (stereo not drawn) [Example 452] |
| < 1 µM | CN1CCOc2cc(-c3cnn(-c4cc(O)n[s+]4[O-])c3)cnc21 (single isomer, unassigned) [Example 450] |
| < 1 µM | [O-][s+]1nc(O)cc1-n1cc(-c2ccc(Cl)nc2)cn1 (stereo not drawn) [Example 439] |
| 1 to 5 µM | [O-][s+]1nc(O)cc1-n1cc(-c2ccc(N3CCCCC3)nc2)cn1 (stereo not drawn) [Example 321] |
| 1 to 5 µM | [O-][s+]1nc(O)cc1-n1cc2cc(OCc3cccnc3)ccc2n1 (stereo not drawn) [Example 445] |
| 1 to 5 µM | Cc1ccnc(-c2cnn(-c3cc(O)n[s+]3[O-])c2)n1 (stereo not drawn) [Example 433] |
| < 1 µM | [O-][s+]1nc(O)cc1-n1cc(-c2ccc(Oc3ccccc3)cc2)cn1 (stereo not drawn) [Example 378] |
| < 1 µM | [O-][s+]1nc(O)cc1-n1cc(-c2ccc3cccnc3c2)cn1 (stereo not drawn) [Example 383] |

Same assay, conditions: rated A/B/C, Pharmacological Test Example 1

| EC50 | Structure (SMILES) |
| --- | --- |
| 1 to 5 µM | COc1cccc2c1cnn2-c1cc(O)n[s+]1[O-] (stereo not drawn) [Example 191] |
| 1 to 5 µM | [O-][s+]1nc(O)cc1-n1cccn1 (stereo not drawn) [Example 284] |
| < 1 µM | COc1cc(-c2cnc3c(c2)OCCN3C)cc2c1cnn2-c1cc(O)n[s+]1[O-] (stereo not drawn) [Example 192] |
| 1 to 5 µM | [O-][s+]1nc(O)cc1-n1ncc2cc(-c3cncnc3)ccc21 (stereo not drawn) [Example 41] |
| 5 to 10 µM | [O-][s+]1nc(O)cc1-n1ncc2c(OCc3ccccc3)cccc21 (stereo not drawn) [Example 30] |
| < 1 µM | COc1ccc(-c2ccc3c(cnn3-c3cc(O)n[s+]3[O-])c2)cn1 (stereo not drawn) [Example 86] |
| < 1 µM | COc1cc(-c2ccc3c(cnn3-c3cc(O)n[s+]3[O-])c2)cnc1N(C)C (stereo not drawn) [Example 173] |
| 1 to 5 µM | Cn1cc2c(-c3ccc4c(cnn4-c4cc(O)n[s+]4[O-])c3)cccc2n1 (stereo not drawn) [Example 76] |
| 1 to 5 µM | [O-][s+]1nc(O)cc1-n1ncc2cc(-c3cccnc3)ncc21 (stereo not drawn) [Example 235] |
| 1 to 5 µM | O=C(NC1CC1)c1ccc(-c2ccc3c(cnn3-c3cc(O)n[s+]3[O-])c2)cc1 (stereo not drawn) [Example 68] |
| < 1 µM | [O-][s+]1nc(O)cc1-n1ncc2cc(-c3ccc(N4CCCC4)cn3)ccc21 (stereo not drawn) [Example 139] |
| 1 to 5 µM | COc1cc(-c2cnc3c(c2)OCCN3C)c2cnn(-c3cc(O)n[s+]3[O-])c2c1 (stereo not drawn) [Example 174] |
| < 1 µM | [O-][s+]1nc(O)cc1-n1ncc2cc(-c3ccccc3F)ccc21 (stereo not drawn) [Example 83] |
| < 1 µM | [O-][s+]1nc(O)cc1-n1ncc2cc(-c3cnc4c(c3)OCCN4C3CC3)ccc21 (stereo not drawn) [Example 149] |
| < 1 µM | [O-][s+]1nc(O)cc1-n1ncc2cc(-c3cc4c(cn3)NCCO4)ccc21 (stereo not drawn) [Example 219] |
| 1 to 5 µM | [O-][s+]1nc(O)cc1-n1ncc2cc(-c3ccc(N4CCCC4)nc3)ccc21 (stereo not drawn) [Example 87] |
| < 1 µM | CN1CCOc2ccc(-c3ccc4c(cnn4-c4cc(O)n[s+]4[O-])c3)nc21 (stereo not drawn) [Example 178] |
| 5 to 10 µM | [O-][s+]1nc(O)cc1-n1ncc2c(C3=CCOCC3)cccc21 (stereo not drawn) [Example 95] |
| 1 to 5 µM | [O-][s+]1nc(O)cc1-n1ncc2c(Cl)cccc21 (stereo not drawn) [Example 29] |
| 1 to 5 µM | [O-][s+]1nc(O)cc1-n1ncc2ccc(Br)cc21 (stereo not drawn) [Example 7] |
| 1 to 5 µM | [O-][s+]1nc(O)cc1-n1ncc2cc(F)ccc21 (stereo not drawn) [Example 11] |
| 5 to 10 µM | [O-][s+]1nc(O)cc1-n1ncc2ccccc21 (stereo not drawn) [Example 17] |
| 1 to 5 µM | [O-][s+]1nc(O)cc1-n1ncc2ccc(C3=CCOCC3)cc21 (stereo not drawn) [Example 103] |
| 1 to 5 µM | COc1cc(-c2cccnc2)cc2c1cnn2-c1cc(O)n[s+]1[O-] (stereo not drawn) [Example 199] |
| < 1 µM | [O-][s+]1nc(O)cc1-n1ncc2cc(-c3ccncc3)ccc21 (stereo not drawn) [Example 58] |
| < 1 µM | [O-][s+]1nc(O)cc1-n1ncc2cc(-c3cncc(N4CCCC4)n3)ccc21 (stereo not drawn) [Example 141] |
| < 1 µM | O=C1CCCN1c1ccc(-c2ccc3c(cnn3-c3cc(O)n[s+]3[O-])c2)cn1 (stereo not drawn) [Example 186] |
| 1 to 5 µM | COc1cc(-c2ccncc2)cc2c1cnn2-c1cc(O)n[s+]1[O-] (stereo not drawn) [Example 200] |
